Holding throughout (type): functional, cell-based
The test system of one test is SK-OV-3. Description: Cytotoxicity against human SKOV3 cells after 72 hrs by SRB assay. On the technique in general: The SRB assay estimates cell density from bound dye.
The test system of the next test is A549. Description: Cytotoxicity against human A549 cells after 72 hrs by SRB assay.
The next test deals with HCT-15. Description: Cytotoxicity against human HCT15 cells after 72 hrs by SRB assay.
Another test relates to SK-MEL-2. Description: Cytotoxicity against human SK-MEL-2 cells after 72 hrs by SRB assay.
[1] abbreviates: Homo sapiens, SK-OV-3, 72 h, read-out: IC50.
Where [2] appears, read: Homo sapiens, A549, 72 h, read-out: IC50.
Setting [3] is: Homo sapiens, HCT-15, 72 h, read-out: IC50.
Setting [4] is: Homo sapiens, SK-MEL-2, 72 h, read-out: IC50.

As for `CC1=C(CO)C(=O)O[C@@H](/C(C)=C2\[C@H](O)C[C@H]3[C@@H]4[C@@H]5O[C@@H]5[C@@]5(O)CC=CC(=O)[C@]5(C)[C@H]4CC[C@]23C)C1`, the concentration for half-maximal inhibition (IC50) result with SK-OV-3 (sk-ov-3), in the test with A549 (a549), in the test with HCT-15 (hct-15) and in the test on SK-MEL-2 (sk-mel-2) was “Not Active” throughout.
As for `CC1=C(CO)C(=O)O[C@@H]([C@@H](C)[C@@]2(O)CC[C@H]3[C@@H]4[C@@H]5O[C@@H]5[C@@]5(O)CC=CC(=O)[C@]5(C)[C@H]4CC[C@@]32C)C1`, the IC50 entry in the test on SK-OV-3 (sk-ov-3), in the test on A549 (a549), in the test on HCT-15 (hct-15) and in the test with SK-MEL-2 (sk-mel-2) was “Not Active” each time.
With `CC1=C(C)C(=O)O[C@@H]([C@](C)(O)[C@@]2(O)CC[C@H]3[C@@H]4[C@@H]5O[C@@H]5[C@@]5(O)CC=CC(=O)[C@]5(C)[C@H]4CC[C@@]32C)C1`, the IC50 result with SK-OV-3 (sk-ov-3), in the test on A549 (a549), in the test with HCT-15 (hct-15) and in the test on SK-MEL-2 (sk-mel-2) was “Not Active” throughout.
As for `CC(=O)O[C@@H]1C[C@H]2[C@@H]3[C@@H]4O[C@@H]4[C@@]4(O)CC=CC(=O)[C@]4(C)[C@H]3CC[C@]2(C)/C1=C(\C)[C@H]1CC(C)=C(CO)C(=O)O1`, the IC50 (usually the point on the concentration scale where inhibition reaches its midpoint) in the test with SK-OV-3 (setting [1]) is greater than 10 µM; in the test with A549 (setting [2]), greater than 10 µM; with HCT-15 (setting [3]), 7.6 µM; with SK-MEL-2 (setting [4]), 10 µM.
Take `CC1=C(C)[C@H](O)[C@H]([C@](C)(O)[C@H]2CC[C@H]3[C@@H]4[C@@H]5O[C@@H]5[C@@]5(O)CC=CC(=O)[C@]5(C)[C@H]4CC[C@]23C)OC1=O`: the IC50 is greater than 10 µM with SK-OV-3 (setting [1]), greater than 10 µM in the test on A549 (setting [2]), 9.8 µM with HCT-15 (setting [3]) and 9.2 µM in the test with SK-MEL-2 (setting [4]).
For the compound `C[C@H]([C@H]1C[C@H](C)[C@@H](C)C(=O)O1)[C@@]1(O)CC[C@H]2[C@@H]3[C@@H]4O[C@@H]4[C@@]4(O)CC=CC(=O)[C@]4(C)[C@H]3CC[C@@]21C`, the IC50 result with SK-OV-3 (sk-ov-3), in the test with A549 (a549), in the test with HCT-15 (hct-15) and in the test on SK-MEL-2 (sk-mel-2) was “Not Active” throughout.
As for `C[C@H]1C[C@H]([C@](C)(O)[C@H]2CC[C@H]3[C@@H]4[C@H](O)C=C5CC=CC(=O)[C@]5(C)[C@H]4CC[C@]23C)OC(=O)[C@@H]1C`, the IC50 in the test with SK-OV-3 (setting [1]) was 8.8 µM; in the test with A549 (setting [2]), greater than 10 µM; in the test on HCT-15 (setting [3]) it was 5.7 µM; with SK-MEL-2 (setting [4]), 5.9 µM.
As to `C[C@H]1C[C@H]([C@](C)(O)[C@H]2CC[C@H]3[C@@H]4[C@@H]5O[C@@H]5[C@@]5(O)CC=CC(=O)[C@]5(C)[C@H]4CC[C@]23C)OC(=O)[C@@H]1C`, the IC50 result with SK-OV-3 (sk-ov-3), with A549 (a549), with HCT-15 (hct-15) and in the test on SK-MEL-2 (sk-mel-2) was “Not Active” in each case.
With `CC1=C(CO)C(=O)O[C@@H]([C@](C)(O)[C@H]2CC[C@H]3[C@@H]4[C@@H]5O[C@@H]5[C@@]5(O)CC=CC(=O)[C@]5(C)[C@H]4CC[C@]23C)C1`, the IC50 result in the test with SK-OV-3 (sk-ov-3), in the test with A549 (a549), in the test on HCT-15 (hct-15) and in the test with SK-MEL-2 (sk-mel-2) was “Not Active” in each case.
As to `CC1=C(C)C(=O)O[C@@H]([C@](C)(O)[C@H]2CC[C@H]3[C@@H]4[C@H](O)C=C5CC=CC(=O)[C@]5(C)[C@H]4CC[C@]23C)C1`, the concentration for half-maximal inhibition (IC50) in the test on SK-OV-3 (setting [1]) is 7.9 µM; in the test on A549 (setting [2]), greater than 10 µM; in the test with HCT-15 (setting [3]), 5.1 µM; with SK-MEL-2 (setting [4]), 3.4 µM.
For the compound `CC1=C(C)C(=O)O[C@@H]([C@@H](C)[C@]2(O)CC[C@H]3[C@@H]4[C@@H]5O[C@@H]5[C@@]5(O)CC=CC(=O)[C@]5(C)[C@H]4CC[C@@]32C)C1`, the IC50 result in the test with SK-OV-3 (sk-ov-3), with A549 (a549), in the test on HCT-15 (hct-15) and in the test with SK-MEL-2 (sk-mel-2) was “Not Active” in each case.
For `COc1cc([C@@H]2c3cc4c(cc3[C@@H](O[C@@H]3O[C@@H]5CO[C@@H](C)O[C@H]5[C@H](O)[C@H]3O)[C@H]3COC(=O)[C@H]23)OCO4)cc(OC)c1O` [ETOPOSIDE], the IC50 with SK-OV-3 (setting [1]) came out at 1.83 µM; with A549 (setting [2]), 0.71 µM; in the test with HCT-15 (setting [3]), 0.46 µM; with SK-MEL-2 (setting [4]), 0.79 µM.
As to `CC1=C(C)C(=O)O[C@@H]([C@](C)(O)[C@H]2CC[C@H]3[C@@H]4[C@@H]5O[C@@H]5[C@@]5(O)CC=CC(=O)[C@]5(C)[C@H]4CC[C@]23C)C1` [WITHANOLIDE A], the IC50 result in the test with SK-OV-3 (sk-ov-3), in the test on A549 (a549), with HCT-15 (hct-15) and in the test with SK-MEL-2 (sk-mel-2) was “Not Active” each time.
Consider `CC1=C(C)C(=O)O[C@@H]([C@@H](C)[C@@]2(O)CC[C@H]3[C@@H]4[C@@H]5O[C@@H]5[C@@]5(O)CC=CC(=O)[C@]5(C)[C@H]4CC[C@@]32C)C1` [WITHANONE], for which the IC50 with SK-OV-3 (setting [1]) is greater than 10 µM; in the test with A549 (setting [2]), greater than 10 µM; with HCT-15 (setting [3]) it was 5.9 µM; with SK-MEL-2 (setting [4]) it was 6.1 µM.

The values above are taken from ChEMBL document CHEMBL4480413, “Cytotoxic Withanolides from the Roots of Indian Ginseng ( Withania somnifera)” (J Nat Prod, 2019).
